According to publication PMC8293625, “HLA class-I-peptide stability mediates CD8^+ T cell immunodominance hierarchies and facilitates HLA-associated immune control of HIV” (Cell Reports, 2021):

What was measured:
HLA-A*0301 [1] = molecular target: T1, HLA-A*0301 (Homo sapiens, UniProt P04439); assay: Cell-based HLA class I-peptide concentration-based stability assay (TAP-deficient mono-allelic 721.221 cells)
Method: Controls without peptide, but the corresponding concentration of DMSO, were performed in parallel.

HLA-A*0301 [2] = molecular target: T1, HLA-A*0301; assay: Thermal denaturation (differential scanning fluorimetry) of soluble HLA class I-peptide monomers; assay type: binding; settings: DSF, 2 μM pMHC, 10mM HEPES pH 7.4, 150 mM NaCl, SYPRO orange, 20–95°C in 1°C steps; representative (Fig 3B)
Method: To confirm these observations and further validate the cell-based stability assay, we used an orthogonal approach to evaluate the relationship between HLA class-I-peptide stability and ID by assessing thermal denaturation of soluble HLA class-I-peptide complexes ([Hellman et al., 2016]). In this assay, soluble HLA class-I monomers with bound peptide are incubated in the presence of an environmentally sensitive fluorescent molecule whose fluorescence is enhanced when bound to exposed hydrophobic surfaces during protein unfolding. As a result, the thermal stability (Tm, defined as the temperature at which 50% of the protein is unfolded) of an HLA class-I-peptide complex can be determined by fluorometric measurements during incremental temperature increases, which serve as a proxy for the stabilizing capacity of a bound epitope ([Hellman et al., 2016]).
This relative difference in Tm between ID and SubD epitopes was also observed for HLA-A^∗02 and HLA-B^∗57 (Figure S4) and collectively was statistically significant (Figure 3C).
Expression, refold and purification of the soluble constructs of the pMHCs were performed as previously described ([Pierce et al., 2014]). Briefly, the HLA-A^∗02, HLA-A^∗03 and HLA-B^∗57 heavy chains, and β2-microglobulin were expressed in Escherichia coli and purified as inclusion bodies (IBs). The IBs were solubilized in 8M Urea. Target peptides were provided by the MGH Peptide Core. […]
Differential scanning fluorimetry was performed using a Bio-RAD CFX96 real time PCR system as previously described. Briefly, the excitation and emission wavelengths were set to 587 and 607 nm respectively, and the fluorescence intensity was measured after every 1°C rise in temperature starting from 20°C and going up to 95°C. […] Apparent Tm values were calculated by identifying the point at which the melting transition was 50% complete.

Sequence: RLAFHHVAR [RR9]
- Relative HLA MFI (10 uM) (HLA-A*0301 [1]; HLA A*03 mono-allelic TAP-deficient 721.221 cells, peptide 10 uM, relative anti-HLA MFI): 0.003513
- Relative HLA MFI (100 uM) (HLA-A*0301 [1]; HLA A*03 mono-allelic TAP-deficient 721.221 cells, peptide 100 uM, relative anti-HLA MFI): 0.03204
- anti-HLA MFI (HLA-A*0301 surface stabilization) (HLA-A*0301 [1]; HLA-A*0301 + sgRNA TAP cells (Fig 3A), peptide concentration not given): 123
- thermal stability (Tm) of HLA-A*0301-peptide complex (HLA-A*0301 [2]): 44 °C
